The values that follow come from paper PMC9448382, “Fluorosulfate-containing pyrazole heterocycles as selective BuChE inhibitors: structure-activity relationship and biological evaluation for the treatment of Alzheimer’s disease” (Journal of Enzyme Inhibition and Medicinal Chemistry, 2022).

“Also recorded” adds a separate entry of the source.

In one data set the target is T1, eqBuChE (Equus caballus, UniProt P81908).
T1 construct: BuChE from horse serum (C4290-1KU; Sigma); purchased Sigma C4290-1KU; host or cells: horse serum
Kind of data set: Kinetic study of eqBuChE inhibition. The data set is classed as biochemical, horse. How it is done:
The same test settings were used for kinetic studies, with six concentrations of substrate (0.1‒1 mM) and four concentrations of inhibitor (0‒1.6 µM). The effect of different doses of compound K3 on BuChE catalytic activity at 37 °C was also investigated. The final concentration of enzyme was changed (0‒0.18 U/mL) under the same test conditions as indicated in the assay methodology. For the assessment of reversible and irreversible inhibitor binding at enzyme, different concentrations of compound K3 (0, 0.4, 0.8, and 1.6 µM) were utilised.

A further data set has as its target T2, hBuChE from human serum (Homo sapiens, UniProt P06276).
T2 construct: purchased Sigma B4186; host or cells: human serum (per result head)
The data set is described as follows: hBuChE inhibition assay. The data set is classed as biochemical. The following applies: mean ± SEM. How it is done: (§1) With 0.1 M pH 8 PBS, a DTNB solution (5 μM) was produced. Dissolve the test compound in DMSO to prepare a concentration of 2 × 10^−1 M stock solution. The solution was diluted in ethanol to five concentrations of 200, 100, 10, 1 and 0.1 μM, respectively. Measurement was carried out with 96-well plates, add 40 μL buffer, 10 μL test compound at a series of concentrations, and 10 μL AChE/BuChE in sequence. The mixture was then incubated at 37 °C for 10 min. Then add 20 μL DTNB, incubation at 37 °C for 10 min. […] For the blank value, 10 μL of ethanol was used instead of the inhibitor solution. The percentage of enzyme activity and the logarithm of compound concentration were used to express the inhibitory activity of compounds. IC50 was calculated by SPSS17.0.

Data set [1] relates to human hepatoblastoma cells HepG2. Kind of data set: Cytotoxicity MTT assay, HepG2 cells. To be noted: 50 μM, 24 h. As for the experimental part:
Human hepatoblastoma cells HepG2 and human normal liver cells LO2 cells were cultured at 37 °C in DMEM containing 10% foetal bovine serum, 100 U/mL penicillin, and […] streptomycin in a humidified incubator with 5% CO2. The methyl thiazolyl tetrazolium (MTT) assay was used to assess cell cytotoxicity. In a 96-well plate, HepG2 cells and LO2 cells were injected at 1 × 10^4 cells per well. The cells were treated with various substances that were diluted in DMEM for 24 h after being cultivated for 24 h. The cells were then treated for 4 h with 20 µL 0.5 mg/mL MTT reagent. The cell culture was withdrawn after 4 h, and 150 µL DMSO were added to dissolve the formazan. […] Three independent tests were used to calculate cell viability.
Blank: cultured with fresh medium only.
In general terms: Tetrazolium assays rely on reduction of a dye to a coloured formazan, in cell work by metabolically active cells.

A further data set concerns male ICR mice. Kind of data set: In vivo hepatotoxicity evaluation. Also noted: species or system mouse. As for the experimental part:
. Mice were fasted for 24 h. Intragastrically, the combination was given at a dose of 30 mg/kg body weight with the same quantity of vehicle (po). […] A biochemical analyser was used to process the data (Hitachi 7020, Japan). Mice were slaughtered and livers were obtained for immunohistochemical morphological evaluation after the last sample of postglobular blood. We isolated two 3-mm sections of each liver from the hilum to the edge of the left lateral lobe using an ultra-thin semi-automatic microtome (LeicaRM2245, Germany), immediately placed them in 10% buffered formaldehyde, fixed them for 2 days, and embedded them in paraffin blocks using a paraffin-embedding station (LeicaEG1150H, Germany). Subsequently, five […] sections were prepared from these paraffin sections, deparaffinized, stained with haematoxylin and eosin (HE) or using the periodic acid-Schiff glycogen staining method.

Another data set relates to ICR mice. The data set is described as follows: In vivo acute toxicity evaluation. The text has this: A total of 20 mice weighing 20‒25 g (F: M = 1: 1) were randomly allocated into two groups: control (n = 10) and experimental (n = 10). […] For two weeks, the mice's behaviour, appearance, and body weight changes were examined and documented. GraphPadPrism8.0 software was used to compare and summarise the body weights of the mice in the control and experimental groups.

The next data set addresses T3, BuChE from horse serum (Equus caballus, UniProt P81908).
T3 construct: BuChE from horse serum (C4290-1KU; Sigma); purchased Sigma C4290-1KU; host or cells: horse serum
The data set is described as follows: biochemical. The data set is classed as biochemical. How it is done:
According to Ellman's method, assays were carried out on AChE from electric eel (C3389-500UN; Sigma) and BuChE from horse serum (C4290-1KU; Sigma). On a final volume of 500 μL, the experiment was carried out in 48-well plates. EeAChE or eqBuChE, 0.036 U/mL, and 0.1 M pH 8 phosphate buffer were added to each well. At 37 °C, they were pre-incubated for 20 min at various chemical concentrations. […] Along with the enzymatic breakdown of ACh or BuCh, the DTNB creates the yellow anion 5-thio-2-nitrobenzoic acid. In a Biotek Synergy HTX Multi-Mode reader, changes in absorbance were detected at 410 nm. Inhibition curves were used to calculate the IC50 values (log inhibitor concentration vs percent of inhibition). The same conditions were used in a control experiment without the inhibitor, and the blank comprised buffer, DMSO, DTNB, and substrate.
The IC50 values were calculated by SPSS 17.0.

The subject of the next data set is Aβ1–42. The data set is described as follows: Brain Aβ1–42 total amount by mouse ELISA kit. The data set is classed as in vivo. The following applies: mice, Aβ1–42 icv model, K3 10 mg/kg po, donepezil 15 mg/kg po. As for the experimental part:
In the Aβ1–42 oligomeric damage experiment, all mice were sacrificed after the behavioural research was completed, and the brains were collected to assess the total content of Aβ1–42 using a mouse ELISA kit. Each brain tissue sample was thoroughly homogenised in a grinder with 10 times PBS (pH = 7.4 ± 0.1) before being centrifuged for 5 min at 5000×g. The supernatant was separated for use. The detection technique followed the directions exactly, and the standard curve was created. Brain tissue Aβ1–42 content was calculated according to the linear regression equation. All values were expressed as mean ± SEM using GraphPadPrism8.0 software.
A general note: ELISA stands for enzyme-linked immunosorbent assay.

Data set [2] concerns the target T4, recombinant human AChE (hAChE) (Homo sapiens, UniProt P22303).
T4 construct: purchased Sigma C1682
The data set is described as follows: hAChE inhibition assay. The data set is classed as biochemical. How it is done: as §1

The mark [3] stands for this setting: ICR mice, intragastric, 1.0 g/kg, 14 days.

T1 sequence (P81908 whole entry): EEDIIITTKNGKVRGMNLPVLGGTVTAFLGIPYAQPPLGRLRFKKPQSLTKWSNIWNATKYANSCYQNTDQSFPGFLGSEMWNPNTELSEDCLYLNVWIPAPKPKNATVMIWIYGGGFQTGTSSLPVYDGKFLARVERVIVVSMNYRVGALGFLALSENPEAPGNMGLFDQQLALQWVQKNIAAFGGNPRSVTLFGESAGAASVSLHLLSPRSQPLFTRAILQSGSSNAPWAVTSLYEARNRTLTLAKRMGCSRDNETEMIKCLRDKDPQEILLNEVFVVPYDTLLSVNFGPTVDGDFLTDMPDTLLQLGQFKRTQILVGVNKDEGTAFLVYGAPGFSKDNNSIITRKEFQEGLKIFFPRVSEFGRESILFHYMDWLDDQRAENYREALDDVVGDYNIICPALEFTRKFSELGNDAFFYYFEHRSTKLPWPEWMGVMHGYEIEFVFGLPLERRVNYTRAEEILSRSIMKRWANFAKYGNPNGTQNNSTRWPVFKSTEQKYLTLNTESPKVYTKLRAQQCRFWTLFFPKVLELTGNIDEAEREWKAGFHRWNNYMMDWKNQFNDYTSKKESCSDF
T2 sequence (P06276 29-602): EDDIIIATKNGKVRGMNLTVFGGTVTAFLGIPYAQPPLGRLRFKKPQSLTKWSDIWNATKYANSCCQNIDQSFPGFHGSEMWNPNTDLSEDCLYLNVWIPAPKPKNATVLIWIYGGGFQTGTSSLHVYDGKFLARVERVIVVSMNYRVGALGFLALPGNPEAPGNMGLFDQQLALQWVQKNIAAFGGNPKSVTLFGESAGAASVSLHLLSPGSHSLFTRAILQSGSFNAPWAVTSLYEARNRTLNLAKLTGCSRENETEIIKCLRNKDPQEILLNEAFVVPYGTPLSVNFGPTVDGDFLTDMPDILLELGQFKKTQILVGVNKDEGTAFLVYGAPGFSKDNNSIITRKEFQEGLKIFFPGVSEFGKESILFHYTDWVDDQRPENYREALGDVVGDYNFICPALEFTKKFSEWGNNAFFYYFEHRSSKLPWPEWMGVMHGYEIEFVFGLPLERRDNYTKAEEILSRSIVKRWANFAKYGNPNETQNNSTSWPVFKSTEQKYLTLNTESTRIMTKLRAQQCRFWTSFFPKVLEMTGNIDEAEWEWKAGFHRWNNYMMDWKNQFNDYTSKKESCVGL
T4 sequence (P22303 32-614): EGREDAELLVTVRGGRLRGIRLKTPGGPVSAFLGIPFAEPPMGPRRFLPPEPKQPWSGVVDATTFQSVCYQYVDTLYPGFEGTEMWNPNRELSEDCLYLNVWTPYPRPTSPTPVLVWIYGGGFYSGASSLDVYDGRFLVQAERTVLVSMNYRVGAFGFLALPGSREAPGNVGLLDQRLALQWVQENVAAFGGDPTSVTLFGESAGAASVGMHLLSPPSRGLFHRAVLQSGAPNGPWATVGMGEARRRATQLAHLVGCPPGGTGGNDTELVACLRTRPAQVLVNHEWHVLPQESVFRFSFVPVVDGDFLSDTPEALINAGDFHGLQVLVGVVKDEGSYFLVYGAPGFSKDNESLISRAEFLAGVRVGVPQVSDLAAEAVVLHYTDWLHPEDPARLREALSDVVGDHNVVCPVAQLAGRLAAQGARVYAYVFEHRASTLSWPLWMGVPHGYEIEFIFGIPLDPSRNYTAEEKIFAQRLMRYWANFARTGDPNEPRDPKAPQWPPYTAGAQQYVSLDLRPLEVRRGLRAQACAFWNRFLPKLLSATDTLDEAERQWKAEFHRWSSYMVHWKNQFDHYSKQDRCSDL
T3 sequence (P81908 whole entry): as the sequence (P81908 whole entry) above

Regarding `O=S(=O)(F)Oc1cc(-c2ccccc2)nn1-c1ccc(Cl)cc1` [Compound K3], the “reversibility of BuChE inhibition” value at eqBuChE (K3 0, 0.4, 0.8, 1.6 μM, enzyme 0‒0.18 U/mL) was “reversible”. The “type of BuChE inhibition” value at eqBuChE (Lineweaver-Burk plots) is “mixed and non-competitive; also recorded: mixed, and non-competitive”. At eqBuChE (Lineweaver-Burk secondary plots, read-out: dissociation constant Ki), the Ki was 770 nM. Moreover, the IC50 at hBuChE from human serum came to 6590 ± 3540 nM; at BuChE from horse serum, 790 ± 320 nM. In addition, the cell survival rate in data set [1] worked out at 87.9%. The “serum ALT and AST levels vs vehicle group” value in the data set on male ICR mice (30 mg/kg po, 8, 22 and 36 h after single dosing) is reported as “No significant difference”. The liver histomorphology result with male ICR mice (30 mg/kg, 36 h after administration) is “no core necrosis or evident steatosis”. The “differences in body weight changes vs vehicle group” value with ICR mice (setting [3]) is “not significant”. Besides, the “tolerability in single-dose acute toxicity assay” value in the data set on ICR mice (setting [3]) is reported as “well tolerated”. Also, the tolerated dose in the data set on ICR mice (mice, in vivo safety experiments) was determined as 1000 mg/kg. In the data set on Aβ1–42, the “decrease of Aβ1–42 peptides in brain” value came to 17.6%. Also, in data set [2], the inhibition at 20 µM worked out at 31.6 ± 5.74%.

A word on the Ki: it is a measure of affinity in units of concentration, obtained from inhibition or displacement. A word on the IC50: it is the concentration at which inhibition is half-maximal. One may read the inhibition as how much of the control response was suppressed.
